From patent publication US11084841B1, “Chitooligosaccharide-N-geraniol derivatives, methods for preparing and application thereof” (Jiangnan University, priority 2020, dated 2021)

Key:
Escherichia coli = assay: antibacterial activity test, culture plate with antibacterial substance; format: cell-based; details: 1 mg/ml antibacterial substance, 37° C., 24 hours, versus control plate, FIG. 6
Description: (§1) Gram negative and positive bacterium (Escherichia coli and Staphylococcus aureus) are selected for the antibacterial activity test. The bacteria strain was selected to grow in LB culture medium and sub-culture to the second generation in logarithmic phase. The bacterial suspension was diluted to the required concentration (10^5 CFU/ml) with normal saline. Under the aseptic condition, the bacterial solution and antibacterial substance solution (mix 5 μL bacterial solution and 5 mL LB liquid medium containing 1 mg/ml antibacterial substance) were added onto the culture plate and mixed evenly. The control group was the culture plate without antibacterial substance, and then the culture plates were incubated at 37° C. for 24 hours to observe the growth of bacteria.

Staphylococcus aureus = assay: as above; format: cell-based; details: 1 mg/ml antibacterial substance, 37° C., 24 hours, versus control plate, FIG. 5
Description: as §1

CC(C)=CCC/C(C)=C/CO [Ger, (2E)-3,7-dimethylocta-2,6-dien-1-ol]
inhibition of bacterial growth (Escherichia coli): able to inhibit
inhibition of bacterial growth (Staphylococcus aureus): able to inhibit
